Reference: patent publication US6004957A, “Sulfonamide inhibitors of aspartyl protease” (Vertex Pharmaceuticals, Incorporated, priority 1998, dated 1999)

What was measured:
HIV-1 protease = HIV-1 protease (Human immunodeficiency virus type 1 group M subtype B, UniProt P04585); assay: biochemical; details: Table VII
Source text: We measured the inhibition constants of the compounds listed in Table VII against HIV-1 protease using the above-cited method of Pennington et al.

[1] = test system: HIVIIIb in CCRM-CEM cells; assay: Anti-viral potency in CCRM-CEM cells acutely infected with HIVIIIb (method of Meek et al.), extracellular p24 antigen; assay type: cell-based, HIV-1; details: Human immunodeficiency virus 1, HIV replication, Table VIII, read-out: IC90 Range
Summary of the method: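 Compounds in DMSO were added to CCRM-CEM cells (CD4+ human T-cell lymphoma) acutely infected with HIVIIIb following Meek et al. Inhibition of viral replication was determined from extracellular p24 antigen concentration measured by enzyme immunoassay.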

`CC(C)CN(C[C@@H](O)[C@H](Cc1ccccc1)NC(=O)[C@H](CC(N)=O)NC(=O)c1ccc2ccccc2n1)S(=O)(=O)c1ccc(-c2ccccn2)s1` [Compound 12, (S)-N-1-(1-(S)-Benzyl-2-(syn)-hydroxyl-3-(isobutyl-(5-pyridin-2-yl-thiophene-2-sulfonyl)-amino)-propyl)-2-((quinoline-2-carbonyl)-amino)-succinamide] was tested, and the Ki (HIV-1 protease) was 0.1 nM and the IC90 [1] was < 100 nM.

`CC(C)CN(C[C@@H](O)[C@H](Cc1ccccc1)NC(=O)OC(C)(C)C)S(=O)(=O)c1cccc(F)c1` [Compound 50] was tested, and the Ki (HIV-1 protease) was 11 nM and the IC90 [1] was 1000 to 10000 nM.

`CC(C)CN(C[C@H](O)[C@H](Cc1ccccc1)NC(=O)[C@H](CC(N)=O)NC(=O)c1ccc2ccccc2n1)S(=O)(=O)c1cccc2nonc12` [Compound 192] gave a Ki (HIV-1 protease) of 67 nM and an IC90 [1] of 1000 to 10000 nM.

`CC(C)N(C[C@@H](O)[C@H](Cc1ccccc1)NC(=O)OC(C)(C)C)S(=O)(=O)c1ccc(F)cc1` [Compound 75] showed a Ki (HIV-1 protease) of 290 nM.

For `CC(C)CN(C[C@@H](O)[C@H](Cc1ccccc1)NC(=O)OC(C)(C)C)S(=O)(=O)c1ccc(N)c([N+](=O)[O-])c1` [Compound 62], the Ki (HIV-1 protease) was 72 nM.

In the case of `O=C(N[C@@H](Cc1ccccc1)[C@H](O)CN(CC1CCCC1)S(=O)(=O)c1ccc2c(c1)OCO2)O[C@H]1CCOC1` [Compound 176], the Ki (HIV-1 protease) is reported as < 0.1 nM.

`CC(=O)Nc1ccc(S(=O)(=O)N(CC(C)C)C[C@@H](O)[C@H](Cc2ccccc2)NC(=O)OCC2CCOC2)cc1` (stereo partly drawn) [Compound 92] showed a Ki (HIV-1 protease) of 20 nM.

With `CC(C)CN(C[C@@H](O)[C@H](Cc1ccccc1)NC(=O)OCC1CCOC1)S(=O)(=O)c1ccc(F)cc1` (stereo partly drawn) [Compound 97, 4-Fluoro-N-(2 syn,3S)-2-hydroxy-4-phenyl-3-((tetrahydro-furan-(R)-3-ylmethoxycarbonylamino)-butyl)-N-isobutyl-benzenesulfonamide and 4-Fluoro-N-(2 syn,3S)-2-hydroxy-4-phenyl-3-((tetrahydro-furan-(S)-3-ylmethoxycarbonylamino)-butyl)-N-isobutyl-benzenesulfonamide] the Ki (HIV-1 protease) was 2.5 nM and the IC90 [1] was 101 to 1000 nM.

Work on `CC(C)CN(C[C@@H](O)[C@H](Cc1ccccc1)NC(=O)OCc1ccccn1)S(=O)(=O)c1ccc(F)c(F)c1` [Compound 108] yielded a Ki (HIV-1 protease) of 2 nM and an IC90 [1] of 1000 to 10000 nM.

Molecule `C=CCOC(=O)N[C@@H](Cc1ccccc1)[C@H](O)CN(CC(C)C)S(=O)(=O)c1ccc(F)c(NC(C)=O)c1` [Compound 87] has a Ki (HIV-1 protease) of 10 nM and an IC90 [1] of 1000 to 10000 nM.

With `CC(C)CN(C[C@@H](O)[C@H](Cc1ccccc1)NC(=O)[C@@H](NC(=O)OCc1ccccn1)C(C)C)S(=O)(=O)c1ccc(F)cc1` [Compound 26] the Ki (HIV-1 protease) was 0.1 nM and the IC90 [1] was 101 to 1000 nM.

For `CC(=O)Nc1ccc(S(=O)(=O)N(CC2CCCCC2)C[C@@H](O)[C@H](Cc2ccccc2)NC(=O)O[C@H]2CCOC2)cc1` [Compound 160, N-(4-(Cyclohexylmethyl)-((2 syn,3S)-2-hydroxy-4-phenyl-3-((S)-tetrahydrofuran-3-yloxycarbonylamino)-butyl)-sulfamoyl-phenyl)-acetamide], the IC90 [1] was < 100 nM.

For `NC(=O)C[C@H](NC(=O)c1ccc2ccccc2n1)C(=O)N[C@@H](Cc1ccccc1)[C@H](O)CN(Cc1ccccc1)S(=O)(=O)c1cccc2nonc12` [Compound 9, (S)-N-1-(3-((Benzo(1,2,5)oxadiazole-4-sulfonyl)-benzyl-amino)-(1S,2 syn)-1-benzyl-2-hydroxy-propyl)-2-((quinoline-2-carbonyl)-amino)-succinamide], the IC90 [1] was 101 to 1000 nM.

For `Cc1ccc(S(=O)(=O)N(CC(C)C)C[C@@H](O)[C@H](Cc2ccccc2)NC(=O)O[C@H]2CCOC2)cc1` [Compound 165, N-((2 syn,3S)-2-Hydroxy-4-phenyl-3-((syn)-tetrahydrofuran-3-yloxycarbonylamino)-butyl)-N-isobutyl-4-methyl-benzenesulfonamide], the IC90 [1] was 101 to 1000 nM.

For `CC(C)(C)OC(=O)N[C@@H](Cc1ccccc1)[C@H](O)CN(CC1CCCC1)S(=O)(=O)c1ccc(Cl)c(Cl)c1` [Compound 84], the IC90 [1] was 1000 to 10000 nM.

Work on `C=CCOC(=O)N[C@@H](Cc1ccccc1)[C@H](O)CN(CC1CCCC1)S(=O)(=O)c1ccc(NC(C)=O)cc1` [Compound 146, N-(4-((3-(Allyloxycarbonylamino)-(2 syn,3S)-2-hydroxy-4-phenyl-butyl)-cyclopentylmethylsulfamoyl)-phenyl)-acetamide] yielded an IC90 [1] of 101 to 1000 nM.

For `O=C(N[C@@H](Cc1ccccc1)[C@H](O)CN(CC1CCCC1)S(=O)(=O)c1ccc(F)cc1)O[C@H]1CCOC1` [Compound 182, N-Cyclopentylmethyl-4-fluoro-N-((2 syn,3S)-2-hydroxy-4-phenyl-3-((S)-tetrahydrofuran-3-yloxycarbonylamino)-butyl)-benzenesulfonamide], the IC90 [1] was 101 to 1000 nM.

In the case of `CC(C)CN(C[C@@H](O)[C@H](Cc1ccccc1)NC(=O)OCc1ccccc1)S(=O)(=O)c1ccc2nonc2c1` [Compound 65], the IC90 [1] is reported as 1000 to 10000 nM.

Molecule `CC(C)CN(C[C@@H](O)[C@H](Cc1ccccc1)NC(=O)OC(C)(C)C)S(=O)(=O)N(C)C` [Compound 68] has a Ki (HIV-1 protease) of 120 nM.

With `CC(C)CN(C[C@@H](O)[C@H](Cc1ccccc1)NC(=O)OC1CCOC1)S(=O)(=O)c1ccc(F)cc1` (stereo partly drawn) [Compound 52, 4-Fluoro-N-((2 syn,3S)-2-hydroxy-4-phenyl-3-((R)-tetrahydrofuran-3-yloxycarbonylamino)-butyl)-N-isobutyl-benzenesulfonamide and 4-Fluoro-N-((2 syn,3S)-2-hydroxy-4-phenyl-3-((R)-tetrahydrofuran-3-yloxycarbonylamino)-butyl)-N-isobutyl-benzenesulfonamide] the Ki (HIV-1 protease) was 0.4 nM and the IC90 [1] was 101 to 1000 nM.

`COC(=O)N[C@@H](Cc1ccccc1)[C@H](O)CN(CC(C)C)S(=O)(=O)c1ccc(F)cc1` [Compound 104] gave an IC90 [1] of 1000 to 10000 nM.

Molecule `O=C(N[C@@H](Cc1ccccc1)[C@H](O)CN(CC1CCCCC1)S(=O)(=O)c1ccc(F)cc1)O[C@H]1CCOC1` [Compound 159, N-Cyclohexylmethyl-4-fluoro-N-((2 syn,3S)-2-hydroxy-4-phenyl-3-((S)-tetrahydrofuran-3-yloxycarbonylamino)-butyl)-benzenesulfonamide] has an IC90 [1] of 101 to 1000 nM.

Work on `NC(=O)C[C@H](NC(=O)c1ccc2ccccc2n1)C(=O)N[C@@H](Cc1ccccc1)[C@H](O)CN(Cc1ccccc1)S(=O)(=O)c1cccc(C(=O)O)c1` [Compound 7] yielded an IC90 [1] of 10000 to 40000 nM.

Work on `CC(C)CN(C[C@@H](O)[C@H](Cc1ccccc1)NC(=O)OCc1cccnc1)S(=O)(=O)c1ccc2nonc2c1` [Compound 82] yielded an IC90 [1] of 1000 to 10000 nM.

`O=C(N[C@@H](Cc1ccccc1)[C@H](O)CN(CC1CCCC1)S(=O)(=O)c1ccccc1)O[C@H]1CCOC1` [Compound 148, N-Cyclopentylmethyl-N-((2 syn,3S)-2-hydroxy-4-phenyl-3-((S)-tetrahydrofuran-3-yloxycarbonylamino)-butyl)-benzenesulfonamide] was tested, and the IC90 [1] was < 100 nM.
